Read-outs that look alike come from different tables or passages of the source.
What was measured:
Assay in all cases: biochemical
Wnk1 = Wnk1 (Homo sapiens, UniProt Q9H4A3)
SRPK1 = SRPK1 (Homo sapiens, UniProt Q96SB4)
CK2a2 = CK2a2 (Homo sapiens, UniProt P19784)
MELK = MELK (Homo sapiens, UniProt Q14680)
BRPF1 = molecular target: T1, BRPF1 (Homo sapiens, UniProt P55201)
T1 sequence (P55201 1-1214): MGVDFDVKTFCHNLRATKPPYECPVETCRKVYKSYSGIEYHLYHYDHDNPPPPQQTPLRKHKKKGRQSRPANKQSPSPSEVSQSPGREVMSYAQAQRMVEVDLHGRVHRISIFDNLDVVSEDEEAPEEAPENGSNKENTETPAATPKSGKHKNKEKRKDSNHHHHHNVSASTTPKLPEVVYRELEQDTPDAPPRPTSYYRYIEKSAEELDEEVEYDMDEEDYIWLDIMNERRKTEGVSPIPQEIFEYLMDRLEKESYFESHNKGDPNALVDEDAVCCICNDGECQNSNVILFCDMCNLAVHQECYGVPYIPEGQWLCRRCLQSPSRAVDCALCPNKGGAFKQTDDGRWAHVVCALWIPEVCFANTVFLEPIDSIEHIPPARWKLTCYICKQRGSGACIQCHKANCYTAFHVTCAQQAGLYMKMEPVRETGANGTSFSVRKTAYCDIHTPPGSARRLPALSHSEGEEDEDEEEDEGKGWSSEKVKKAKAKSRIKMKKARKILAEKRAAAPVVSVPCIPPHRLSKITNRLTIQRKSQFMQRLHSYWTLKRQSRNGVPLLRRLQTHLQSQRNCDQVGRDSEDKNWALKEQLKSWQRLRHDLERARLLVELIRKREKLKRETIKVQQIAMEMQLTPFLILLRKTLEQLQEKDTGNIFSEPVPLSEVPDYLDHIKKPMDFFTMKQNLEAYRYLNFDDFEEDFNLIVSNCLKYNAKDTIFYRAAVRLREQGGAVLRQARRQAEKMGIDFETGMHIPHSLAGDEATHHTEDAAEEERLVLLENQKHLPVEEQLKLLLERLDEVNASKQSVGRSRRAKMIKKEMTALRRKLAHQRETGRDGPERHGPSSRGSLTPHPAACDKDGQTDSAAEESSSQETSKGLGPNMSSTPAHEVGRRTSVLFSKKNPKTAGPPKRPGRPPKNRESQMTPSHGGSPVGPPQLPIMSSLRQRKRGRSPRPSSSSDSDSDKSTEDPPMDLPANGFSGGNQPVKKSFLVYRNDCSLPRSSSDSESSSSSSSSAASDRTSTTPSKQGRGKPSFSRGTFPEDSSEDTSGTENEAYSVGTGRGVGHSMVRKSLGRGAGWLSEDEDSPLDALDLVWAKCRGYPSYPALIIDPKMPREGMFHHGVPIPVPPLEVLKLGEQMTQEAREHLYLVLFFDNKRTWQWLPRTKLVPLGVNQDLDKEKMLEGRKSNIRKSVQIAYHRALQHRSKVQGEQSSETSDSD

EpHA4 = EpHA4 (Homo sapiens, UniProt P54764)
BMX = molecular target: T2, BMX (Homo sapiens, UniProt P51813)
T2 sequence (P51813 1-675): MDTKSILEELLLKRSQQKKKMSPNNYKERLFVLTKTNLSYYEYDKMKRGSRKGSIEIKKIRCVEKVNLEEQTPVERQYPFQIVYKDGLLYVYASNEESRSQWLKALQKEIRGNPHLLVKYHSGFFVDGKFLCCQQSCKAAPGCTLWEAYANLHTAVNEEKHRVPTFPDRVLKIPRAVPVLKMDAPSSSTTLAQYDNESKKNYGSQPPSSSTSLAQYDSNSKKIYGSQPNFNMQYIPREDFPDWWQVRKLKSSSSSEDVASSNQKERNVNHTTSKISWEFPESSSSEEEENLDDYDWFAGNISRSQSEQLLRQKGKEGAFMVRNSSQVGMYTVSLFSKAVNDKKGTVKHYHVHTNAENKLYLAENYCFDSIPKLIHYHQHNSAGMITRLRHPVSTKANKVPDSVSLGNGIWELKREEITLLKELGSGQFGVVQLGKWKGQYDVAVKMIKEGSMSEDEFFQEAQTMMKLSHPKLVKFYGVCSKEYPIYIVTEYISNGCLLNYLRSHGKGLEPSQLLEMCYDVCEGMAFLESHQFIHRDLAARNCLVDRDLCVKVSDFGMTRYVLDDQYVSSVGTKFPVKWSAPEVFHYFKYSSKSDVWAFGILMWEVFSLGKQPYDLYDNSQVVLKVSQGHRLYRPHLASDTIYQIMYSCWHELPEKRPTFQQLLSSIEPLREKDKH

ULK3 = molecular target: T3, ULK3 (Homo sapiens, UniProt Q6PHR2)
T3 sequence (Q6PHR2 1-472): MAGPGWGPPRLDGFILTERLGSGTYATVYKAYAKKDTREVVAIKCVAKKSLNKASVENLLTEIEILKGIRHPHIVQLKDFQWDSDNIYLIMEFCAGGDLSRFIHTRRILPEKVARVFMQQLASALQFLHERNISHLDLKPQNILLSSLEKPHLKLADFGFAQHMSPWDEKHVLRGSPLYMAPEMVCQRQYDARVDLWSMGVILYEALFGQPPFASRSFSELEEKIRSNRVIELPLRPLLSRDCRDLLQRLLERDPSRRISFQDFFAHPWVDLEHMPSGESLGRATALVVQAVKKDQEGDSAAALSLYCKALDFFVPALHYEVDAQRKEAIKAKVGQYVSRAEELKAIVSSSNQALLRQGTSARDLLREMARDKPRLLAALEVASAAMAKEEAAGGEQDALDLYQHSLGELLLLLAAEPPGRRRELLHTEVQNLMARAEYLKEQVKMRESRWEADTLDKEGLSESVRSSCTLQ

CaMK2d = CaMK2d (Homo sapiens, UniProt Q13557)
Chain of CaMK2d (Q13557 whole entry): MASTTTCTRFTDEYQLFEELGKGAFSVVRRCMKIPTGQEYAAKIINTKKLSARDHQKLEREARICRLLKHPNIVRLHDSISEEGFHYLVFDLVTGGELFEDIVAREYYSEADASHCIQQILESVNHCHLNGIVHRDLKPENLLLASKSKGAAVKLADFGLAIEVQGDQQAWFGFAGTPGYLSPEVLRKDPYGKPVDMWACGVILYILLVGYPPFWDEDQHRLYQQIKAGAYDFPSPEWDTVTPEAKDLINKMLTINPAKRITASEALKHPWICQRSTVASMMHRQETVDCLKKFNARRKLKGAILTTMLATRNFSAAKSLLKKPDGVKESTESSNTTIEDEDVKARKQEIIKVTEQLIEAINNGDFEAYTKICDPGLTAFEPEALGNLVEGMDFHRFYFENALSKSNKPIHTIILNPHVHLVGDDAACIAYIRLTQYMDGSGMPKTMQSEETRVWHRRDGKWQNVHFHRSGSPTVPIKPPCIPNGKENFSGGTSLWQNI

Chain of SRPK1 (Q96SB4 whole entry): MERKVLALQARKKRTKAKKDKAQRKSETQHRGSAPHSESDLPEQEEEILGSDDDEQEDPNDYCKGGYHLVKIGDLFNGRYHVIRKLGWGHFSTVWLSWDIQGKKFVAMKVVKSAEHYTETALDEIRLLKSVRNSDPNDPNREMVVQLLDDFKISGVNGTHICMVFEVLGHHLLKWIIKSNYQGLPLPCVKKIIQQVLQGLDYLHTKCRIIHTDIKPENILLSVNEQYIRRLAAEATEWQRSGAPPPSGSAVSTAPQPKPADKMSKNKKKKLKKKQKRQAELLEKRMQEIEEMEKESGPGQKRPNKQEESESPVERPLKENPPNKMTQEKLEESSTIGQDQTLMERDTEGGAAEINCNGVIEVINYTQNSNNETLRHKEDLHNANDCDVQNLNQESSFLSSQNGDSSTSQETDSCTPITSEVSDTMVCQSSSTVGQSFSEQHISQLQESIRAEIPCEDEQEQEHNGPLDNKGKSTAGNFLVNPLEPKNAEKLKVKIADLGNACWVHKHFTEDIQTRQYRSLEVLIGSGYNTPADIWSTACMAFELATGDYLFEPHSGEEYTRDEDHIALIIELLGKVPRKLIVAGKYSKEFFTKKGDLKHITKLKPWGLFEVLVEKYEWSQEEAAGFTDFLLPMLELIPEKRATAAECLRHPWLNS
Chain of MELK (Q14680 whole entry): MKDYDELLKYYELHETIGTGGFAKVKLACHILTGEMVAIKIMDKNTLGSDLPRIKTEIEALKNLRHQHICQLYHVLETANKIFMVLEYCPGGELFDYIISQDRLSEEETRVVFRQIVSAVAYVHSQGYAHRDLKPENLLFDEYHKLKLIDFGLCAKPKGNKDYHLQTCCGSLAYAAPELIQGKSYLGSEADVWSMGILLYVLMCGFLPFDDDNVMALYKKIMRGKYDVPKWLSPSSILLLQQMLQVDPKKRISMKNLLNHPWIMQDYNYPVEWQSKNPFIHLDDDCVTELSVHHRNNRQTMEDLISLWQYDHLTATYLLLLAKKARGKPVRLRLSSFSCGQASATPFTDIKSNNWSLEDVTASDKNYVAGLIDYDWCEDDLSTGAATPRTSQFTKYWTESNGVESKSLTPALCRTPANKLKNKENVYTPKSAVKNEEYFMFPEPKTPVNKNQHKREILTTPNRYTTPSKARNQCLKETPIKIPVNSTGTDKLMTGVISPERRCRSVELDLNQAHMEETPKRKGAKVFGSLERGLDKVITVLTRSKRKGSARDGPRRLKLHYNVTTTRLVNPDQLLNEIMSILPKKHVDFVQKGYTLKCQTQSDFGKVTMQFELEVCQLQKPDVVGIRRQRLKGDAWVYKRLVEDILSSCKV
Chain of Wnk1 (Q9H4A3 whole entry): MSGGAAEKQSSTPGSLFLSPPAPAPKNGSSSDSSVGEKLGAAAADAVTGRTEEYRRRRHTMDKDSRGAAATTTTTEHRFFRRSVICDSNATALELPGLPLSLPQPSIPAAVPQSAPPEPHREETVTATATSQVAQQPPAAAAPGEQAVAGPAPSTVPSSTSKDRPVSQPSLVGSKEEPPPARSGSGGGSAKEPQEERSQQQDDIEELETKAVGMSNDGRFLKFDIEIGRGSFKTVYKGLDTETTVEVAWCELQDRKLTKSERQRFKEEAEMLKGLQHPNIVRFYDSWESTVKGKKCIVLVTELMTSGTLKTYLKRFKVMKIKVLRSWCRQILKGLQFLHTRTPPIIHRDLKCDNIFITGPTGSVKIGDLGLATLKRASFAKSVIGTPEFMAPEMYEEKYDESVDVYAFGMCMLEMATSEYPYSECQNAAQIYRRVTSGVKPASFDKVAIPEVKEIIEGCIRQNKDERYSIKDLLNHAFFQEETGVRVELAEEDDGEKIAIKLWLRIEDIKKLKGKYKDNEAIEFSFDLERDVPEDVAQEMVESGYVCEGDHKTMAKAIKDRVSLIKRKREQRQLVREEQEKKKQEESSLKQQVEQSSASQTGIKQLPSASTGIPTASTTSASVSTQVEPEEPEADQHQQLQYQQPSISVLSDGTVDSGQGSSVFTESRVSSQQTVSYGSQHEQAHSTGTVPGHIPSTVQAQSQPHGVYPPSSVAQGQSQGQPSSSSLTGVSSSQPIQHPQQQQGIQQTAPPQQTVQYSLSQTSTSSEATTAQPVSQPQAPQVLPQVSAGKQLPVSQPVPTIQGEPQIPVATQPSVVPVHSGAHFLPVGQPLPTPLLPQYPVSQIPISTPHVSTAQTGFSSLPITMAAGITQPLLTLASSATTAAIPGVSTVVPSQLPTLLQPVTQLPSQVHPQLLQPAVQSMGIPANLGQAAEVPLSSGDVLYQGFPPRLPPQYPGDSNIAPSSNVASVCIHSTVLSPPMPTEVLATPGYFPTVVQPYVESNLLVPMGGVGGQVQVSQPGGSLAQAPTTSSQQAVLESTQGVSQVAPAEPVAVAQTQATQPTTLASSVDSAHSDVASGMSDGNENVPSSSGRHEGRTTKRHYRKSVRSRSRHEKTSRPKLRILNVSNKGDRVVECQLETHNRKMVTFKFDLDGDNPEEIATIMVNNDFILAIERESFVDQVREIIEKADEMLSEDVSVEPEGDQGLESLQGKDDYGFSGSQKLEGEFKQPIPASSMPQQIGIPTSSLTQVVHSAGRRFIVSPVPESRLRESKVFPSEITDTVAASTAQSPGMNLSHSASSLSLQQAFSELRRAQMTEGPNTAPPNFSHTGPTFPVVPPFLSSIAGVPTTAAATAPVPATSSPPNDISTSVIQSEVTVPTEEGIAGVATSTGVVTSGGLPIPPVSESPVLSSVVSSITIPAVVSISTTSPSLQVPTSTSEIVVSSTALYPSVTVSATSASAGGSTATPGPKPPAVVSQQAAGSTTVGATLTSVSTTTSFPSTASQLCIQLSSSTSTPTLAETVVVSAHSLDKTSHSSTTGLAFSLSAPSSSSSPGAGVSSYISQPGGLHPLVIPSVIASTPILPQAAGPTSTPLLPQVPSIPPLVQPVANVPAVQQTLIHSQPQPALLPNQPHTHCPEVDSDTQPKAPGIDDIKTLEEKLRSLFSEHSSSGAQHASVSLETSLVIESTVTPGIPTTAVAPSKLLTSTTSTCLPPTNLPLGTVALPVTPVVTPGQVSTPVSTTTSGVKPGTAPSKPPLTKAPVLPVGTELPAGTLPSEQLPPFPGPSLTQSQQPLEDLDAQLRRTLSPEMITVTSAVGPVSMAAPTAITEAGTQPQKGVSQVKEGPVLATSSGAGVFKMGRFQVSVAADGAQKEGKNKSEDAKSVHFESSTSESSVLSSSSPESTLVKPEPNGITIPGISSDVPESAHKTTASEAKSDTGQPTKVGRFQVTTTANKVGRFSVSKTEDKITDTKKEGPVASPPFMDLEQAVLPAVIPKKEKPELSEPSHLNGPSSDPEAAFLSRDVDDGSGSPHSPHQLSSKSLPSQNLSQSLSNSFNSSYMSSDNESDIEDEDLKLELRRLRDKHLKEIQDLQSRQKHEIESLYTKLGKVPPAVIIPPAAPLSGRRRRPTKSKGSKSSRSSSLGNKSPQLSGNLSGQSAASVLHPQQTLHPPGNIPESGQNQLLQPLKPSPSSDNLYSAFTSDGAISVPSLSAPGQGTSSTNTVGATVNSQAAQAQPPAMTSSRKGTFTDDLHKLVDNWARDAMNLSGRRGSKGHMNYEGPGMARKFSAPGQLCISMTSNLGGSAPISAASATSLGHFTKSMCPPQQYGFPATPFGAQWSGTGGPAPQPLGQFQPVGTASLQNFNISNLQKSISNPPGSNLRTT
Chain of CK2a2 (P19784 whole entry): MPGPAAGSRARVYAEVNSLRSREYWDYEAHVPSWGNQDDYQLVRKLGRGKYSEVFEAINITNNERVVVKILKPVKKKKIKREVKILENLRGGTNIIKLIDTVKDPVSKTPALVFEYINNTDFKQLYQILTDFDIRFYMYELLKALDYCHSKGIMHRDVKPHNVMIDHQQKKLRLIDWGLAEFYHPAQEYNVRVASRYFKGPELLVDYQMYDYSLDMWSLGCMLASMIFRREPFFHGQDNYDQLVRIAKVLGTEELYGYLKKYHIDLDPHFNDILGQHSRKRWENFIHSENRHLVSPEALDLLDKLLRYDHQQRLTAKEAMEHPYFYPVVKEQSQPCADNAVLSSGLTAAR

With `CNc1ncc2cc(-c3cc(Cl)ccc3Cl)c(=O)n(CCCCN)c2n1` [compound 8, 8-(4-Aminobutyl)-6-(2,5-dichlorophenyl)-2-(methylamino)pyrido[2,3-d]pyrimidin-7(8H)-one] the ΔTm at 10 µM (Wnk1; read-out: dTm 8) was 0.3 °C, the ΔTm at 10 µM (SRPK1; read-out: dTm 8) was 0.3 °C and the ΔTm at 10 µM (CK2a2; read-out: dTm 8) was 0 °C. It also gave a ΔTm at 10 µM (MELK; read-out: dTm 8) of 4.6 °C, a ΔTm at 10 µM (BRPF1; read-out: dTm 8) of -0.5 °C and a ΔTm at 10 µM (EpHA4; read-out: dTm 8) of 4.7 °C. For the same molecule, the ΔTm at 10 µM (BMX; read-out: dTm 8) was 4 °C, the ΔTm at 10 µM (ULK3; read-out: dTm 8) was 1 °C and the ΔTm at 10 µM (CaMK2d; read-out: dTm 8) was 0.4 °C.
With `CNc1ncc2cc(-c3cc(C(F)(F)F)ccc3Cl)c(=O)n(CCCCN)c2n1` [compound 9, 8-(4-Aminobutyl)-6-(2-chloro-5-(trifluoromethyl)phenyl)-2-(methylamino)pyrido[2,3-d]pyrimidin-7(8H)-one] the ΔTm at 10 µM (Wnk1; read-out: dTm 9) was 0.1 °C, the ΔTm at 10 µM (SRPK1; read-out: dTm 9) was 0.1 °C and the ΔTm at 10 µM (CK2a2; read-out: dTm 9) was 0 °C. It also gave a ΔTm at 10 µM (MELK; read-out: dTm 9) of 1.6 °C, a ΔTm at 10 µM (BRPF1; read-out: dTm 9) of -0.4 °C and a ΔTm at 10 µM (EpHA4; read-out: dTm 9) of 2.9 °C. The ΔTm at 10 µM (BMX; read-out: dTm 9) was 3.2 °C, the ΔTm at 10 µM (ULK3; read-out: dTm 9) was 0.6 °C and the ΔTm at 10 µM (CaMK2d; read-out: dTm 9) was 0.2 °C.
For `CNc1ncc2cc(-c3cc(Cl)ccc3Br)c(=O)n(CCCCN)c2n1` [compound 10, 8-(4-Aminobutyl)-6-(2-bromo-5-chlorophenyl)-2-(methylamino)pyrido[2,3-d]pyrimidin-7(8H)-one], the ΔTm at 10 µM (Wnk1; read-out: dTm 10) was 0.3 °C, the ΔTm at 10 µM (SRPK1; read-out: dTm 10) was 0.2 °C and the ΔTm at 10 µM (CK2a2; read-out: dTm 10) was 0.2 °C. It also gave a ΔTm at 10 µM (MELK; read-out: dTm 10) of 4.3 °C, a ΔTm at 10 µM (BRPF1; read-out: dTm 10) of -0.3 °C and a ΔTm at 10 µM (EpHA4; read-out: dTm 10) of 5.1 °C. The ΔTm at 10 µM (BMX; read-out: dTm 10) was 3.9 °C, the ΔTm at 10 µM (ULK3; read-out: dTm 10) was 1.1 °C and the ΔTm at 10 µM (CaMK2d; read-out: dTm 10) was 0.5 °C.
For `CNc1ncc2cc(-c3cc(Br)ccc3Br)c(=O)n(CCCCN)c2n1` [compound 11, 8-(4-Aminobutyl)-6-(2,5-dibromophenyl)-2-(methylamino)pyrido[2,3-d]pyrimidin-7(8H)-one], the ΔTm at 10 µM (Wnk1; read-out: dTm 11) was 0.4 °C, the ΔTm at 10 µM (SRPK1; read-out: dTm 11) was 0.2 °C and the ΔTm at 10 µM (CK2a2; read-out: dTm 11) was 0.1 °C. The ΔTm at 10 µM (MELK; read-out: dTm 11) was 4.2 °C, the ΔTm at 10 µM (BRPF1; read-out: dTm 11) was -0.7 °C and the ΔTm at 10 µM (EpHA4; read-out: dTm 11) was 4.3 °C. It also gave a ΔTm at 10 µM (BMX; read-out: dTm 11) of 4.2 °C, a ΔTm at 10 µM (ULK3; read-out: dTm 11) of 1.3 °C and a ΔTm at 10 µM (CaMK2d; read-out: dTm 11) of 0.2 °C.
Work on `CNc1ncc2cc(-c3cc(F)c(-c4cccc(C)n4)cc3F)c(=O)n(CCCCN)c2n1` [compound 12, 8-(4-Aminobutyl)-6-(2,5-difluoro-4-(6-methylpyridin-2-yl)phenyl)-2-(methylamino)pyrido[2,3-d]pyrimidin-7(8H)-one] yielded a ΔTm at 10 µM (Wnk1; read-out: dTm 12) of 1 °C, a ΔTm at 10 µM (SRPK1; read-out: dTm 12) of 0 °C and a ΔTm at 10 µM (CK2a2; read-out: dTm 12) of -1 °C. The ΔTm at 10 µM (MELK; read-out: dTm 12) was 6.1 °C, the ΔTm at 10 µM (BRPF1; read-out: dTm 12) was -1.5 °C and the ΔTm at 10 µM (EpHA4; read-out: dTm 12) was 1.6 °C. The ΔTm at 10 µM (BMX; read-out: dTm 12) was 3.6 °C, the ΔTm at 10 µM (ULK3; read-out: dTm 12) was 6.7 °C and the ΔTm at 10 µM (CaMK2d; read-out: dTm 12) was -0.2 °C.
